In ChEMBL document CHEMBL1201862, “PubChem BioAssay data set” (2004):
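Briefly, cells in 96-well plates were exposed to five compound concentrations for 48 h, and endpoints were estimated by linear interpolation. Here, GI50 denotes the concentration required for 50% inhibition of growth.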 The source made the active and inactive calls. No stated cut-off is given here; in the data, active = GI50 up to about 1.1 µM and inactive = higher.

Key:
Assay in all cases: NCI tumour cell line growth inhibition, 48 h
OVCAR-5 = tested on: OVCAR-5
U-251 = tested on: U-251
SF-295 = tested on: SF-295
SF-268 = tested on: SF-268
SK-OV-3 = tested on: SK-OV-3
CAKI-1 = tested on: CAKI-1
SNB-75 = tested on: SNB-75
NCI/ADR-RES = tested on: NCI/ADR-RES
MDA-MB-435 = tested on: MDA-MB-435
MOLT-4 = tested on: MOLT-4
KM12 = tested on: KM12
DU-145 = tested on: DU-145
SNB-19 = tested on: SNB-19
OVCAR-3 = tested on: OVCAR-3
Malme-3M = tested on: Malme-3M
HT-29 = tested on: HT-29
786-0 = tested on: 786-0
A549 = tested on: A549
SR = tested on: SR
OVCAR-4 = tested on: OVCAR-4

Compound | GI50 (OVCAR-5) | GI50 (U-251) | GI50 (SF-295) | GI50 (SF-268) | GI50 (SK-OV-3) | GI50 (CAKI-1) | GI50 (SNB-75) | GI50 (NCI/ADR-RES) | GI50 (MDA-MB-435) | GI50 (MOLT-4) | GI50 (KM12) | GI50 (DU-145) | GI50 (SNB-19) | GI50 (OVCAR-3) | GI50 (Malme-3M) | GI50 (HT-29) | GI50 (786-0) | GI50 (A549) | GI50 (SR) | GI50 (OVCAR-4)
C=CC(C)(C)c1c(OC)oc2ccc(OC)c(C)c2c1=O | > 100 µM (inactive) | > 100 µM (inactive) | > 100 µM (inactive) | > 100 µM (inactive) | > 100 µM (inactive) | > 100 µM (inactive) | 89.5 µM (inactive) | 96.8 µM (inactive) | > 100 µM (inactive) | 49.5 µM (inactive) | > 100 µM (inactive) | > 100 µM (inactive) | > 100 µM (inactive) | > 100 µM (inactive) | > 100 µM (inactive) | 96.4 µM (inactive) | > 100 µM (inactive) | > 100 µM (inactive) | 84.1 µM (inactive) | 
CC(=O)NC1CONC1=O (centres undefined) | > 100 µM (inactive) | > 100 µM (inactive) | > 100 µM (inactive) | > 100 µM (inactive) | > 100 µM (inactive) | > 100 µM (inactive) | > 100 µM (inactive) | > 100 µM (inactive) | > 100 µM (inactive) | > 100 µM (inactive) | > 100 µM (inactive) | > 100 µM (inactive) | > 100 µM (inactive) | > 100 µM (inactive) | > 100 µM (inactive) | > 100 µM (inactive) | > 100 µM (inactive) | > 100 µM (inactive) | > 100 µM (inactive) | > 100 µM (inactive)
COc1ccc(/C=C/C(=O)Oc2ccccc2OC)cc1 | 23.6 µM (inactive) | 37.4 µM (inactive) | 3.21 µM (inactive) | 1.81 µM (inactive) | > 100 µM (inactive) | > 46.1 µM (inactive) | 27.2 µM (inactive) | 27.8 µM (inactive) | 40.6 µM (inactive) | 1.57 µM (inactive) | 9.04 µM (inactive) | > 61.8 µM (inactive) | 50.2 µM (inactive) | 53.8 µM (inactive) | 56.9 µM (inactive) | 16.4 µM (inactive) | 14 µM (inactive) | 37.8 µM (inactive) | 6.73 µM (inactive) | 9.59 µM (inactive)
COCN(CCC1=CCCCC1)C(=O)OC | > 100 µM (inactive) | > 100 µM (inactive) | 28.2 µM (inactive) | > 100 µM (inactive) | > 100 µM (inactive) | > 100 µM (inactive) | > 100 µM (inactive) | > 100 µM (inactive) | > 100 µM (inactive) | > 100 µM (inactive) | > 100 µM (inactive) | 49.8 µM (inactive) | > 100 µM (inactive) | 76.7 µM (inactive) | > 100 µM (inactive) | > 100 µM (inactive) | > 100 µM (inactive) | > 100 µM (inactive) | > 100 µM (inactive) | > 100 µM (inactive)
O=S1(=O)CCC2=CC(C(F)(F)F)=CC(C(F)(F)F)=CN21 | 2.11 µM (inactive) | 1.83 µM (inactive) | 2.12 µM (inactive) | 1.72 µM (inactive) | 3.86 µM (inactive) | 0.56 µM (active) | 1.71 µM (inactive) | 1.09 µM (active) | 1.82 µM (inactive) | 0.243 µM (active) | 1.71 µM (inactive) | 0.542 µM (active) | 2.47 µM (inactive) | 1.12 µM (active) | 0.733 µM (active) | 1.53 µM (inactive) | 0.415 µM (active) | 2.96 µM (inactive) | 0.216 µM (active) | 1.71 µM (inactive)
